From US10173991B2, “Sulfone amide linked benzothiazole inhibitors of endothelial lipase” (BRISTOL-MYERS SQUIBB COMPANY, priority 2014, dated 2019)
Like-named read-outs stand apart in the source and are kept apart here.

Target: Endothelial lipase (EL) (Homo sapiens (Human), UniProt Q9Y5X9)
Assay: Endothelial lipase (EL) enzymatic assay with fluorescent substrate A10070 in DMPG vesicles
Assay type: biochemical
Summary of the method: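 Substrate A10070 sits in sonicated DMPG vesicles at 0.11 mole fraction. Lipase and compound preincubated 30 min, 37° C, in HEPES pH 8.0 buffer with CaCl2.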

Endothelial lipase (EL), sequence (Q9Y5X9 21-500): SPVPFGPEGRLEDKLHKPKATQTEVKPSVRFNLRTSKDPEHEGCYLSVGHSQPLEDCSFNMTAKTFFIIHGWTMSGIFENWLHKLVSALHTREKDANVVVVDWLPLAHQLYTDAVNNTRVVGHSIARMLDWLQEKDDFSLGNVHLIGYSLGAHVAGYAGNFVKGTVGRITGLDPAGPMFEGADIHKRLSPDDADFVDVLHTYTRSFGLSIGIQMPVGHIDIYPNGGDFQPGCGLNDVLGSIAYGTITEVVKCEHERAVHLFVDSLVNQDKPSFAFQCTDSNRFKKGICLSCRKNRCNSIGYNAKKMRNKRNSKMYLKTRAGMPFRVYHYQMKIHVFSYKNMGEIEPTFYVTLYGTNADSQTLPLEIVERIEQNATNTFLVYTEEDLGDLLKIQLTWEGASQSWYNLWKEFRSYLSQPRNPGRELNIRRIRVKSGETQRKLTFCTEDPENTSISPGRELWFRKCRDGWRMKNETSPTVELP

| Structure (SMILES) | IC50 [µM] | IC50 (EL from conditioned media of HT-1080 cells, 30 min preincubation at 37° C.) [µM] |
| --- | --- | --- |
| COCCS(=O)(=O)C(C(=O)NCC(=O)NC1CC1)c1nc2ccc(-c3ccc(-c4ncco4)cc3)cc2s1 (stereo not shown) [Example 93, N-[(cyclopropyl-carbamoyl)methyl]-2-(2-methoxyethane-sulfonyl)-2-{6[4-(1,3-oxazol-2-yl)phenyl]-1,3-benzothiazol-2-yl} acetamide] | 0.001 | – |
| O=C(CNC(=O)C(c1nc2cc(-c3ccc(NC(=O)OCc4ccccc4)cc3)c(F)cc2s1)S(=O)(=O)C1CC1)NC1CC1 (stereo not shown) [Example 11, benzyl N-(4-{2-[(cyclopropane-sulfonyl) ({[(cyclopropyl-carbamoyl)methyl]carbamoyl})methyl]6-fluoro-1,3-benzothiazol-5-yl}phenyl) carbamate] | 0.001 | – |
| CN(C)S(=O)(=O)C(C(=O)NCC(=O)NC1CC1)c1nc2c(F)cc(-c3ccc(N4CCCCC4=O)cc3)cc2s1 (stereo not shown) [Example 499, N-[(cyclopropyl-carbamoyl)methyl]-2-(dimethyl-sulfamoyl)-2-{4-fluoro-6-[4-(2-oxopiperidin-1-yl)phenyl]-1,3-benzothiazol-2-yl} acetamide] | 0.004 | – |
| COCCS(=O)(=O)C(C(=O)NCC(=O)NC1CC1)c1nc2ccc(-c3ccc(C(F)(F)F)nc3)cc2s1 (stereo not shown) [Example 296, N-[(cyclopropyl-carbamoyl)methyl]-2-(2-methoxyethane-sulfonyl)-2-{6-[6-(trifluoromethyl)pyridin-3-yl]-1,3-benzothiazol-2-yl}acetamide] | 0.069 | – |
| CCS(=O)(=O)C(C(=O)NCC(=O)NC1CC1)c1nc2cc(F)c(-c3ccc(NC(=O)OCc4ccccc4)cc3)cc2s1 (stereo not shown) [Example 45, benzyl N-{4-[2-({[(cyclopropyl-carbamoyl)methyl]carbamoyl} (ethanesulfonyl)methyl)-5-fluoro-1,3-benzothiazol-6-yl]phenyl} carbamate] | 0.003 | – |
| COC(=O)Nc1ccc(-c2ccc3nc(C(C(=O)NCC(=O)NC4CC4)S(C)(=O)=O)sc3c2)c(C)c1 (stereo not shown) [Example 29, methyl N-{4-[2-({[(cyclopropyl-carbamoyl)methyl]carbamoyl} (methanesulfonyl)methyl)-1,3-benzothiazol-6-yl]-3-methylphenyl} carbamate] | 0.02 | – |
| COCCS(=O)(=O)C(C(=O)NCC(=O)NC1CC1)c1nc2cc(F)c(-c3ccc(-n4ncc(C#N)c4N)cc3)cc2s1 (stereo not shown) [Example 585, 2-{6-[4-(5-amino-4-cyano-1H-pyrazol-1-yl)phenyl]-5-fluoro-1,3-benzothiazol-2-yl}-N-[(cyclopropyl-carbamoyl)methyl]-2-(2-methoxyethane-sulfonyl)acetamide] | 0.001 | – |
| COCCS(=O)(=O)C(C(=O)NCC(=O)NC1CC1)c1nc2cc(-c3ccn(C)c(=O)c3)ccc2s1 (stereo not shown) [Example 336, N-[(cyclopropyl-carbamoyl)methyl]-2-(2-methoxyethane-sulfonyl)-2-[5-(1-methyl-2-oxo-1,2-dihydropyridin-4-yl)-1,3-benzothiazol-2-yl]acetamide] | 0.021 | – |
| COCCS(=O)(=O)C(C(=O)NCC(=O)NCC1CC1)c1nc2cc(-c3ccc(F)nc3)ccc2s1 (stereo not shown) [Example 389, N-{[(cyclopropyl-methyl)carbamoyl]methyl}-2-[5-(6-fluoropyridin-3-yl)-1,3-benzothiazol-2-yl]-2-(2-methoxyethane-sulfonyl)acetamide] | 0.059 | – |
| O=C(CNC(=O)C(c1nc2cc(F)c(-c3ccc(F)nc3)cc2s1)S(=O)(=O)CCN1CCOCC1)NC1CC1 (stereo not shown) [Example 421, N-[(Cyclopropylcarbamoyl)methyl]-2-[5-fluoro-6-(6-fluoropyridin-3-yl)-1,3-benzothiazol-2-yl]-2-[2-(morpholin-4-yl)ethanesulfonyl]acetamide] | – | 0.022 |
| O=C(CNC(=O)C(c1nc2cc(F)c(-c3ccc(NC(=O)OCc4ccccc4)cc3)cc2s1)S(=O)(=O)C1CC1)NC1CC1 (stereo not shown) [Example 50, benzyl N-(4-{2-[(cyclopropane-sulfonyl) ({[(cyclopropyl-carbamoyl)methyl]carbamoyl}methyl]-5-fluoro-1,3-benzothiazol-6-yl}phenyl) carbamate] | 0.003 | – |
| Cn1ccc(-c2ccc3nc(C(C(=O)NCC(=O)NC4CC4)S(=O)(=O)N4CCOCC4)sc3c2)cc1=O (stereo not shown) [Example 485, N-[(cyclopropyl-carbamoyl)methyl]-2-[6-(1-methyl-2-oxo-1,2-dihydropyridin-4-yl)-1,3-benzothiazol-2-yl]-2-(morpholine-4-sulfonyl)acetamide] | 0.057 | – |
| CC(C)OCCNC(=O)CNC(=O)C(c1nc2cc(F)cc(-c3cnc(C4CC4)nc3)c2s1)S(=O)(=O)c1ccc(F)cc1 (stereo not shown) [Example 466, 2-[7-(2-cyclopropyl-pyrimidin-5-yl)-5-fluoro-1,3-benzothiazol-2-yl]-2-(4-fluorobenzene-sulfonyl)-N-({[2-(propan-2-yloxy)ethyl]carbamoyl}methyl)acetamide] | 0.157 | – |
| Cn1nccc1-c1ccc2nc(C(C(=O)NCC(=O)NC3CC3)S(=O)(=O)c3ccc(F)cc3)sc2c1 (stereo not shown) [Example 459, N-[(cyclopropyl-carbamoyl)methyl]-2-(4-fluorobenzene-sulfonyl)-2-[6-(1-methyl-1H-pyrazol-5-yl)-1,3-benzothiazol-2-yl]acetamide] | 0.018 | – |
| COCCS(=O)(=O)C(C(=O)NCC(=O)NC1COC1)c1nc2ccc(-c3ccc(F)nc3)cc2s1 (stereo not shown) [Example 384, 2-[6-(6-fluoropyridin-3-yl)-1,3-benzothiazol-2-yl]-2-(2-methoxyethane-sulfonyl)-N-{[(oxetan-3-yl)carbamoyl]methyl} acetamide] | 0.013 | – |
| COCCNC(=O)c1ccc(-c2ccc3nc(C(C(=O)NCC(=O)NC4CC4)S(=O)(=O)CCOC)sc3c2)cc1OC (stereo not shown) [Example 409, 4-[2-({[(cyclopropyl-carbamoyl)methyl]carbamoyl}(2-methoxyethane-sulfonyl)methyl)-1,3-benzothiazol-6-yl]-2-methoxy-N-(2-methoxyethyl) benzamide] | 0.023 | – |
| O=C(CNC(=O)C(c1nc2cc(-c3ccc(F)nc3)ccc2s1)S(=O)(=O)Cc1ccc(F)nc1)NC1CC1 (stereo not shown) [Example 15, N-[(cyclopropyl-carbamoyl)methyl]-2-[5-(6-fluoropyridin-3-yl)-1,3-benzothiazol-2-yl]-2-[(6-fluoropyridin-3-yl)methanesulfonyl] acetamide] | 0.029 | – |
| COCCS(=O)(=O)C(C(=O)NCC(=O)NC1CC1)c1nc2ccc(-c3cc(C)nn3C)cc2s1 (stereo not shown) [Example 317, N-[(cyclopropyl-carbamoyl)methyl]-2-[6-(1,3-dimethyl-1H-pyrazol-5-yl)-1,3-benzothiazol-2-yl]-2-(2-methoxyethane-sulfonyl)acetamide] | 0.004 | – |
| COCCS(=O)(=O)C(C(=O)NCC(=O)NC1CC1)c1nc2ccc(-c3ccc(Cl)cn3)cc2s1 (stereo not shown) [Example 303, 2-[6-(5-chloropyridin-2-yl)-1,3-benzothiazol-2-yl]-N-[(cyclopropyl-carbamoyl)methyl]-2-(2-methoxyethane-sulfonyl)acetamide] | 0.247 | – |
| COCCS(=O)(=O)C(C(=O)NCC(=O)NC1(C)CC1)c1nc2cc(-c3ccc(F)nc3)ccc2s1 (stereo not shown) [Example 392, 2-[5-(6-fluoropyridin-3-yl)-1,3-benzothiazol-2-yl]-2-(2-methoxyethane-sulfonyl)-N-{[(1-methylcyclopropyl)carbamoyl]methyl} acetamide] | 0.014 | – |
| COCCNC(=O)c1ccc(-c2ccc3nc(C(C(=O)NCC(=O)NC4CC4)S(=O)(=O)Cc4ccc(F)cc4)sc3c2)cc1 (stereo not shown) [Example 226, 4-[2-({[(cyclopropyl-carbamoyl)methyl]carbamoyl}(4-fluorophenyl)methanesulfonyl-methyl)-1,3-benzothiazol-6-yl]-N-(2-methoxyethyl) benzamide] | 0.091 | – |
| COC(=O)Nc1ccc(-c2cc3sc(C(C(=O)NCC(=O)NC4CC4)S(C)(=O)=O)nc3cc2F)cc1 (stereo not shown) [Example 120, methyl N-{4-[2-({[(cyclopropyl-carbamoyl)methyl]carbamoyl} (methanesulfonyl)methyl)-5-fluoro-1,3-benzothiazol-6-yl]phenyl} carbamate] | 0.004 | – |
| CS(=O)(=O)C(C(=O)NCC(=O)NC1CC1)c1nc2c(F)c(-c3ccc(NC(=O)OCc4ccccc4)cc3)ccc2s1 (stereo not shown) [Example 127, benzyl N-{4-[2-({[(cyclopropyl-carbamoyl)methyl]carbamoyl} (methanesulfonyl)methyl)-4-fluoro-1,3-benzothiazol-5-yl]phenyl} carbamate] | 0.003 | – |
| O=C(CNC(=O)C(c1nc2c(F)cc(-c3ccc(F)nc3)cc2s1)S(=O)(=O)c1ccc(F)cc1)NC1CC1 (stereo not shown) [Example 472, N-[(cyclopropyl-carbamoyl)methyl]-2-[4-fluoro-6-(6-fluoropyridin-3-yl)-1,3-benzothiazol-2-yl]-2-(4-fluorobenzene-sulfonyl)acetamide] | 0.023 | – |
| COC(=O)Nc1ccc(-c2cc3nc(C(C(=O)NCC(=O)NC4CC4)S(C)(=O)=O)sc3cc2F)cc1 (stereo not shown) [Example 114, methyl N-{4-[2-({[(cyclopropyl-carbamoyl)methyl]caramoyl} (methanesulfonyl)methyl)-6-fluoro-1,3-benzothiazol-5-yl]phenyl} carbamate] | 0.004 | – |
| CC(C)S(=O)(=O)C(C(=O)NCC(=O)NC1CC1)c1nc2cc(-c3ccc4[nH]c(=O)ccc4c3)c(F)cc2s1 (stereo not shown) [Example 270, N-[(cyclopropyl-carbamoyl)methyl]-2-[6-fluoro-5-(2-oxo-1,2-dihydroquinolin-6-yl)-1,3-benzothiazol-2-yl]-2-(propane-2-sulfonyl)acetamide] | 0.009 | – |
| O=C(CNC(=O)C(c1nc2cc(F)c(-c3ccc(F)nc3)cc2s1)S(=O)(=O)N1CCOCC1)NC1CC1 (stereo not shown) [Example 486, N-[(cyclopropyl-carbamoyl)methyl]-2-[5-fluoro-6-(6-fluoropyridin-3-yl)-1,3-benzothiazol-2-yl]-2-(morpholine-4-sulfonyl)acetamide] | 0.048 | – |
| CN(C)S(=O)(=O)C(C(=O)NCC(=O)NC1CC1)c1nc2c(F)cc(-c3ccc4[nH]c(=O)ccc4c3)cc2s1 (stereo not shown) [Example 492, N-[(cyclopropyl-carbamoyl)methyl]-2-(dimethyl-sulfamoyl)-2-[4-fluoro-6-(2-oxo-1,2-dihydroquinolin-6-yl)-1,3-benzothiazol-2-yl]acetamide] | 0.005 | – |
